Assay results taken from patent publication US12636313B2, “Nutraceutical or pharmaceutical composition comprising iron pyrophosphate for treating and/or preventing iron deficiency conditions or diseases” (NEILOS S.R.L., priority 2019, dated 2026).

Tests used:
[1] = system: subjects with advanced cancer and plasma iron levels below 60 μg/dL; conditions: 30 mg/day, 30-day treatment, 42 subjects with advanced cancer; cited from earlier work
[2] = after 120 minutes in sham gastric environment, 0.1 M HCl, 37° C., 75 rpm, six replicates
Method: 1 g of sample was weighed and introduced into the container of the dissolving apparatus containing 900 mL of 0.1 M HCl. The dissolution was performed for 2 h at 37° C. and 75 rpm. After dissolution, 1 mL of sample was diluted to 50 mL with 0.1 M HCl. The preparation was performed in six replicates for each sample.

## O=P([O-])([O-])OP(=O)([O-])[O-].O=P([O-])([O-])OP(=O)([O-])[O-].O=P([O-])([O-])OP(=O)([O-])[O-].[Fe+3].[Fe+3].[Fe+3].[Fe+3] [iron pyrophosphate as such, iron pyrophosphate]
[1]
  ferritinaemia level: enhanced
  haemoglobinaemia level: enhanced
  side effects: without appearance of side effects
  sideraemia level: enhanced
[2]
  amount of iron released: 7.5 g per 100 g of formulation
